Results: patent US12565485B2, “Solid forms of 1-((S)-4-((R)-7-(6-amino-4-methyl-3-(trifluoromethyl)pyridin-2-yl)-6-chloro-8-fluoro-2-(((s)-1-methylpyrrolidin-2-yl)methoxy)quinazolin-4-yl)-3-methylpiperazin-1-yl)prop-2-en-1-one” (Genentech, Inc., priority 2022, dated 2026)

Tests used:
Type in all cases: physicochemical
[1] = Slurry conversion experiments (XRPD of isolated solids); settings: for Slurry conversion result (XRPD form): different solvent systems
Method: Slurry conversion experiments were conducted at RT in different solvent systems. About 15˜20 mg of freebase starting material (Compound 1) was suspended in 0.5 mL of solvent in an HPLC vial. Solids were isolated for XRPD analysis after magnetically stirring at RT.
Slurry at 5°. Slurry conversion experiments were conducted at 5° C. in different solvent systems. About 15˜20 mg of freebase starting material (Compound 1) was suspended in 0.5 mL of solvent in an HPLC vial. Solids were isolated for XRPD analysis after magnetically stirring at 5° C.
Slurry at 50°. Slurry conversion experiments were conducted at 50° C. in different solvent systems. About 20 mg of freebase starting material (Compound 1) was suspended in 0.5 mL of solvent in an HPLC vial. Solids were isolated for XRPD analysis after magnetical stirring at 50° C.
Slurry at RT for Compound A. Slurry conversion experiments were conducted at RT in different solvent systems. […] Solids were isolated for XRPD analysis after magnetic stirring at RT.
Slurry at 50° for Compound A. Slurry conversion experiments were conducted at 50° C. in different solvent systems. […] Solids were isolated for XRPD analysis after magnetic stirring at 50° C.

[2] = Form change before and after drying (XRPD)
Method: The wet sample was vacuum dried at RT for 3 hrs. […] A solid was obtained with a yield of 62.2%. […] (peak temperature). Based on the integrals in NMR spectrum, the stoichiometric ratio of adipic acid:freebase was determined to be 1.06. A peak of EtOAc was observed. Around 0.07 molar EtOAc (0.8 wt %) was detected, which was consistent with TGA weight loss.
(peak), and one small endotherm at 158.8° C. […] Based on the integrals, the stoichiometric ratio of adipic acid:freebase was determined to be 1.65.
(peak temperature). Based on the integrals, the stoichiometric ratio of adipic acid:freebase was determined to be 1.06. Peak of THF was observed. Around 0.17 molar THF (1.9 wt %) was detected, which was consistent with TGA weight loss.
(§1) Compound B Form A was obtained from an acetone system and the sample was air dried at RT. […] (peak temperature) before the possible overlapped peak with peak temperature at 156.3° C. (FIG. 12). Based on the integrals, the stoichiometric ratio of fumaric acid:freebase was determined to be 1.03. A peak of acetone was observed and approximately 0.49 molar acetone (4.4 wt %) was detected. The HPLC purity of Compound B Form A was determined to be 93.56 area %. […] Around 0.39 molar acetone (3.5 wt %) was still detected. One endotherm at 58.7° C. and an overlapped peak with peak temperature at 157.1° C. were still observed on the sample obtained after heating. The first endotherm might be caused by re-adsorption of moisture. Since ˜3.5 wt % acetone was still detected from NMR, Compound B Form A is expected to be an acetone/H2O co-solvate.
Compound C Form A was obtained from EtOAc system and the sample was air dried at RT. […] HPLC purity of Compound C Form A was determined to be 95.18 area %.

[3] = Heating under N2 protection (VT-XRPD), form change; settings: heating to 100° C. under N2 protection, cooled down and exposed to ambient conditions; listed as adipate Type A
Method: as §1, with “co-solvate. […]” for “co-solvate.”

[4] = Slow evaporation; settings: Compound A, evaporation at RT
Method: Slow evaporation. Slow evaporation experiments were performed under 10 conditions. Briefly, about 15˜20 mg of freebase starting material (810935-01-A) was dissolved in 0.5˜1.0 mL of solvent in a 3-mL glass vial.
Slow evaporation Compound A. Slow evaporation experiments were performed under seven conditions.

[5] = Slow cooling; settings: Compound A, 50° C. to 5° C. at 0.1° C./min
Method: Slow cooling Compound A. Slow cooling experiments were conducted in four solvent systems. […] The suspension was then heated to 50° C., equilibrated for about 2 hr and filtered to a new vial using a seal membrane (PTFE, pore size of 0.45 μm). Filtrates were slowly cooled down to 5° C. at a rate of 0.1° C./min. The obtained solids were kept isothermal at 5° C. before isolation for XRPD analysis.

C=CC(=O)N1CCN(c2nc(OC[C@@H]3CCCN3C)nc3c(F)c(-c4nc(N)cc(C)c4C(F)(F)F)c(Cl)cc23)[C@@H](C)C1 [Compound A Form A]
Slurry conversion result (XRPD form) ([1]; 50° C.): Compound A Form A was obtained
Result ([1]; Compound A slurry at 50° C., Anisole): Compound A Form A
Result ([1]; Compound A slurry at 50° C., CPME): Compound A Form A
Result ([1]; Compound A slurry at 50° C., EtOAc): Compound A Form A
Result ([1]; Compound A slurry at 50° C., IPAc): Compound A Form A
Result ([1]; Compound A slurry at 50° C., MIBK): Compound A Form A
Result ([1]; Compound A slurry at 50° C., MTBE): Compound A Form A
Result ([1]; Compound A slurry at 50° C., Toluene): Compound A Form A
Result ([1]; Compound A slurry at 50° C., n-Heptane): Compound A Form A
Result ([1]; Compound A slurry at RT, 1,4-Dioxane): Compound A Form A
Result ([1]; Compound A slurry at RT, 1,4-Dioxane/IPAc, 1:3): Compound A Form A
Result ([1]; Compound A slurry at RT, 1,4-Dioxane/n-Heptane, 1:3): Compound A Form A
Result ([1]; Compound A slurry at RT, 2-MeTHF/Toluene, 1:4): Compound A Form A
Result ([1]; Compound A slurry at RT, ACN): Compound A Form A
Result ([1]; Compound A slurry at RT, Acetone): Compound A Form A
Result ([1]; Compound A slurry at RT, Acetone/Anisole, 1:3): Compound A Form A
Result ([1]; Compound A slurry at RT, Acetone/n-Heptane, 1:3): Compound A Form A
Result ([1]; Compound A slurry at RT, DCM/IPA, 1:4): Compound A Form A
Result ([1]; Compound A slurry at RT, DMSO/H2O, 1:6): Clear solution
Result ([1]; Compound A slurry at RT, EtOH/n-Heptane, 1:6): Compound A Form A
Result ([1]; Compound A slurry at RT, H2O): Clear solution
Result ([1]; Compound A slurry at RT, H2O/ACN, 1:4): Gel
Result ([1]; Compound A slurry at RT, H2O/IPA, 1:4): Gel
Result ([1]; Compound A slurry at RT, IPA): Compound A Form A
Result ([1]; Compound A slurry at RT, MEK): Compound A Form A
Result ([1]; Compound A slurry at RT, MEK/MTBE, 1:3): Compound A Form A
Result ([1]; Compound A slurry at RT, MEK/n-Heptane, 1:3): Compound A Form A
Result ([1]; Compound A slurry at RT, MeOH/CPME, 1:6): Compound A Form A
Result ([1]; Compound A slurry at RT, THF/H2O, 1:6): Clear solution
Slurry conversion result (XRPD form) ([1]; RT): adipate Type A was obtained
Form change before and after drying ([2]; air dried at RT): No form change was observed
Form change before and after drying ([2]; vacuum dried at RT for 3 hrs): No form change was observed
Form change after heating [3]: very slight differences were observed before and after heating
Result ([4]; 2-MeTHF): Gel
Result ([4]; Acetone): Gel
Result ([4]; DCM): Gel
Result ([4]; EtOH): Gel
Result ([4]; H2O): Clear solution
Result ([4]; MeOH): Gel
Result ([4]; THF): Gel
Result ([5]; ACN): Compound A Form A
Result ([5]; Acetone): Compound A Form A
Result ([5]; IPA): Compound A Form A
Result ([5]; MEK): Compound A Form A
